Patent publication US20220153732A1, “PROTEIN SECRETION INHIBITORS” (KEZAR LIFE SCIENCES, priority 2019, published 2022)
pEC50, pIC50: −log10 of the molar value. Like-named read-outs stand apart in the source and are kept apart here.

Tests used:
Type in all cases: cell-based
[1] = test system: human multiple myeloma cell line U266B1; assay: U266 Cell Viability Assay; settings: U-266, 48 hr, U266B1 cells, Celltiter-Glo, read-out: 48 hr U266 Viability Celltiter-Glo: Mean EC50
Procedure, shortened: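 Viability measured by CellTiter-Glo luciferase signal after 48 h compound exposure (37 °C, 5% CO2) of U266B1 cells in 384-well format. Where stereochemistry is not shown, data refer to the stereoisomer mixture.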

[2] = test system: PD1-ss+10aa/Gaussia Luciferase; assay: Dox-Induced PD1-ss-Gluc Assay
Procedure, shortened: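 Compounds, diluted in DMSO/media with doxycycline, were added to cells plated a day earlier and kept at 37° C under 5% CO2. The cells stably express a Gaussia luciferase construct fused to PD1-ss+10aa, induced via the T-REx system. Unassigned stereochemistry means mixture data.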

[3] = test system: IL-2-FL/Gaussia Luciferase; assay: Dox Induced IL2-FL-Gluc Assay
Procedure, shortened: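 Compounds were added together with doxycycline in DMSO/media and incubated at 37° C., 5% CO2. The cells were a stably selected line carrying IL-2-FL/Gaussia luciferase under T-REx inducible control. Structures drawn without stereochemistry were tested as stereoisomer mixtures.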

[4] = test system: HER3-ss+4aa/Gaussia Luciferase; assay: Dox-Induced Her3-ss-Gluc Assay
Procedure, shortened: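 Compounds, diluted in DMSO/media containing doxycycline, were incubated at 37° C., 5% CO2 with cells seeded one day earlier. The cells stably express HER3-ss+4aa/Gaussia luciferase under T-REx control. Where no stereochemistry is shown, data refer to the mixture of stereoisomers.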

[5] = test system: TNFα-FL/Gaussia Luciferase; assay: Dox Induced TNFα-FL-Gluc Assay
Procedure, shortened: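 Compounds were added in doxycycline-containing DMSO/media to cells plated the previous day and incubated at 37° C under 5% CO2. These cells stably express a TNFα-FL/Gaussia luciferase cDNA whose expression is under T-REx (Dox-inducible) control, selected with Hygromycin and Blasticidin.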

[6] = test system: human multiple myeloma cell line NCI-H929; assay: H929 Cell Viability Assay; settings: 48 hr, NCI-H929 cells, Celltiter-Glo, read-out: 48 hr H929 Viability Celltiter-Glo: Mean EC50
Experimental: Plates were incubated at 37° C., 5% CO2 for 48 hours. After 48 hours, Celltiter-Glo® (Promega) was added to each well and luciferase signal was quantified using Tecan Infinite M1000 Pro for cell viability determination.
For chemical structures that include one or more stereoisomers, but are illustrated without indicating stereochemistry, the assay data refers to a mixture of stereoisomers.

[7] = 24 hr doxycycline induction, 293FRT/TO cells, Gaussia luciferase signal; read-out: 24 hr Dox Inducible PD1ssGluc 293FRT/TO: Mean IC50
[8] = 24 hr doxycycline induction, 293FRT/TO cells, Gaussia luciferase signal; read-out: 24 hr Dox Inducible IL2FLGIuc 293FRT/TO: Mean IC50
[9] = 24 hr doxycycline induction, 293FRT/TO cells, Gaussia luciferase signal; read-out: 24 hr Dox Inducible Her3(ss + 4)Gluc 293FRT/TO: Mean IC50
[10] = 24 hr doxycycline induction, 293FRT/TO cells, Gaussia luciferase signal; read-out: 24 hr Dox Inducible TNFaFLGluc 293FRT/TO: Mean IC50
[11] = 24 hr, doxycycline-induced, 293FRT/TO cells; read-out: 24 hr Dox Inducible PD1ssGluc 293FRT/TO: Mean IC50
[12] = 24 hr, doxycycline-induced, 293FRT/TO cells; read-out: 24 hr Dox Inducible IL2FLGIuc 293FRT/TO: Mean IC50
[13] = 24 hr, doxycycline-induced, 293FRT/TO cells; read-out: 24 hr Dox Inducible Her3(ss + 4)Gluc 293FRT/TO: Mean IC50
[14] = 24 hr, doxycycline-induced, 293FRT/TO cells; read-out: 24 hr Dox Inducible TNFaFLGluc 293FRT/TO: Mean IC50

Row | Structure (SMILES) | pEC50 [1] | pIC50 [2, 7] | pIC50 [3, 8] | pIC50 [4, 9] | pIC50 [5, 10] | pEC50 [6] | pIC50 [2, 11] | pIC50 [3, 12] | pIC50 [4, 13] | pIC50 [5, 14] | pIC50 ([2]; read-out: 24 hr Dox Inducible PD1ssGluc 293FRT/TO: Mean IC50; 24 hr, doxycycline-induced, 293FRT/TO cells) | pIC50 ([3]; read-out: 24 hr Dox Inducible IL2FLGIuc 293FRT/TO: Mean IC50; 24 hr, doxycycline-induced, 293FRT/TO cells) | pIC50 ([4]; read-out: 24 hr Dox Inducible Her3(ss + 4)Gluc 293FRT/TO: Mean IC50; 24 hr, doxycycline-induced, 293FRT/TO cells) | pIC50 ([5]; read-out: 24 hr Dox Inducible TNFaFLGluc 293FRT/TO: Mean IC50; 24 hr, doxycycline-induced, 293FRT/TO cells)
1 | O=C(Nc1nc(/C=C/Cc2ccccc2)cs1)c1cccn1Cc1ccncc1 [Compound A218, N-(4-(3-phenylprop-1-en-1-yl)thiazol-2-yl)-1-(pyridin-4-ylmethyl)-1H-pyrrole-2-carboxamide] | < 4.60 | 6.88 | 6.11 | 6.50 | 5.52 | 4.77 | – | – | – | – | – | – | – | –
2 | CO[C@H]1C[C@H](c2csc(NC(=O)c3cccn3Cc3ccncc3)n2)N(c2ccccc2)C1 [Compound A333] | < 4.60 | – | – | – | – | 5.83 | 7.68 | 7.57 | 7.38 | 6.78 | – | – | – | –
3 | CC(C)(OCc1ccc(N=[N+]=[N-])cc1)c1csc(NC(=O)c2cccn2Cc2ccncc2C#N)n1 [Compound A308] | < 4.60 | – | – | – | – | 4.76 | 6.06 | 5.63 | 5.77 | 4.87 | – | – | – | –
4 | O=C(Nc1nc([C@@H]2CCN(Cc3ccccc3)C2)cs1)c1cccn1Cc1ccncc1 [Compound A291] | 4.65 | 6.04 | 5.17 | 5.28 | < 4.60 | < 4.60 | – | – | – | – | – | – | – | –
5 | CC(C)OC(C)(C)c1csc(NC(=O)c2cccn2Cc2ccccc2Cl)n1 [Compound A78] | < 4.60 | 5.50 | 5.20 | 5.10 | < 4.60 | 4.68 | – | – | – | – | – | – | – | –
6 | O=C(Nc1nc([C@H]2C[C@@H](Oc3ccccc3)C2)cs1)c1cccn1Cc1ccncc1 [Compound A330] | < 4.60 | – | – | – | – | 4.72 | 6.66 | 5.99 | 6.32 | 5.41 | – | – | – | –
7 | COc1cnc(/C=C/c2csc(NC(=O)c3cccn3Cc3ccncc3)n2)c(F)c1 [Compound A299] | < 4.60 | – | – | – | – | < 4.60 | 8.15 | 6.66 | 6.67 | < 4.60 | – | – | – | –
8 | O=C(Nc1nc(/C=C/c2cnc3c(c2)OCO3)cs1)c1cccn1Cc1ccncc1 [Compound A274] | < 4.60 | 6.44 | 5.43 | 5.59 | 4.65 | 4.62 | – | – | – | – | – | – | – | –
9 | O=C(Nc1nc([C@H]2CCN(c3ccccc3)C2)cs1)c1cccn1Cc1ccncc1 [Compound A290] | 4.68 | 6.58 | 5.85 | 6.19 | 5.40 | 4.82 | – | – | – | – | – | – | – | –
10 | CC(F)(F)c1csc(NC(=O)c2cccn2Cc2ccncc2)n1 [Compound A29, N-(4-(1,1-difluoroethyl)thiazol-2-yl)-1-(pyridin-4-ylmethyl)-1H-pyrrole-2-carboxamide] | < 4.60 | 6.31 | 6.03 | 5.91 | 4.71 | < 4.60 | – | – | – | – | – | – | – | –
11 | CC(C)(C)c1cc(NC(=O)c2cccn2Cc2ccncc2)no1 [Compound B4, N-(5-(tert-butyl)isoxazol-3-yl)-1-(pyridin-4-ylmethyl)-1H-pyrrole-2-carboxamide] | < 4.60 | – | – | – | – | < 4.60 | 5.52 | 4.65 | 4.95 | < 4.60 | – | – | – | –
12 | C=Cc1csc(NC(=O)c2cccn2Cc2ccncc2)n1 [Compound B2] | < 4.60 | – | – | – | – | < 4.60 | 5.70 | 5.07 | 4.92 | < 4.60 | – | – | – | –
13 | Cc1ccc(/C=C/c2csc(NC(=O)c3cccn3Cc3ccncc3)n2)nc1 [Compound A357] | 4.75 | – | – | – | – | 4.97 | 7.92 | 5.04 | 5.64 | 5.13 | – | – | – | –
14 | CC(=O)N1CCC(CCCn2cccc2C(=O)Nc2nc(C(C)(C)OC(C)C)cs2)CC1 [Compound A101, 1-(3-(1-acetylpiperidin-4-yl)propyl)-N-(4-(2-isopropoxypropan-2-yl)thiazol-2-yl)-1H-pyrrole-2-carboxamide] | < 4.60 | < 4.60 | < 4.60 | < 4.60 | < 4.60 | < 4.60 | – | – | – | – | – | – | – | –
15 | CC(C)OC(C)(C)c1csc(NC(=O)c2cccn2Cc2cc(F)nc(F)c2)n1 [Compound A36, 1-((2,6-difluoropyridin-4-yl)methyl)-N-(4-(2-isopropoxypropan-2-yl)thiazol-2-yl)-1H-pyrrole-2-carboxamide] | < 4.60 | 6.16 | 6.05 | 5.94 | 4.68 | < 4.60 | – | – | – | – | – | – | – | –
16 | C[C@H](OC(C)(C)c1csc(NC(=O)c2cccn2CCCc2ccncc2)n1)c1ccccc1 [Compound A6, (S)-N-(4-(2-(1-phenylethoxy)propan-2-yl)thiazol-2-yl)-1-(3-(pyridin-4-yl)propyl)-1H-pyrrole-2-carboxamide] | 5.21 | 7.34 | 7.11 | 7.06 | 6.27 | 5.66 | – | – | – | – | – | – | – | –
17 | CC(C)(C)[Si](O[C@H]1CCN(c2ccccc2)[C@@H]1c1csc(NC(=O)c2cccn2Cc2ccncc2)n1)(c1ccccc1)c1ccccc1 [Compound A353] | < 4.60 | – | – | – | – | 6.52 | – | – | – | – | 8.30 | 7.96 | 7.92 | 7.89
18 | CC(C)OC(C)(C)c1csc(NC(=O)c2cccn2CC2CNC(=O)C2)n1 (stereo not drawn) [Compound A93, N-(4-(2-isopropoxypropan-2-yl)thiazol-2-yl)-1-((5-oxopyrrolidin-3-yl)methyl)-1H-pyrrole-2-carboxamide] | < 4.60 | 4.88 | < 4.60 | < 4.60 | < 4.60 | < 4.60 | – | – | – | – | – | – | – | –
19 | Cc1cccc(/C=C\c2csc(NC(=O)c3cccn3Cc3ccncc3)n2)n1 [Compound A355] | 4.76 | – | – | – | – | 4.65 | 6.28 | 4.95 | 5.42 | 5.01 | – | – | – | –
20 | CC(C)OC(C)(C)c1csc(NC(=O)c2ccc(CO)n2Cc2ccncc2)n1 [Compound A110, 5-(hydroxymethyl)-N-(4-(2-isopropoxypropan-2-yl)thiazol-2-yl)-1-(pyridin-4-ylmethyl)-1H-pyrrole-2-carboxamide] | < 4.60 | < 4.60 | < 4.60 | < 4.60 | < 4.60 | < 4.60 | – | – | – | – | – | – | – | –
21 | COc1ccc(C#Cc2csc(NC(=O)c3cccn3Cc3ccncc3)n2)cc1 [Compound A143] | < 4.70 | 7.05 | 6.21 | 6.37 | 5.80 | 4.82 | – | – | – | – | – | – | – | –
22 | CC(C)(OCC1CCOCC1)c1csc(NC(=O)c2cccn2Cc2ccncc2)n1 [Compound A40, 1-(pyridin-4-ylmethyl)-N-(4-(2-((tetrahydro-2H-pyran-4-yl)methoxy)propan-2-yl)thiazol-2-yl)-1H-pyrrole-2-carboxamide] | < 4.60 | 6.07 | 5.92 | 5.81 | 4.90 | < 4.60 | – | – | – | – | – | – | – | –
23 | O=C(Nc1nc(C2Cc3ccccc3C2)cs1)c1cccn1CCCc1ccncc1 [Compound A284] | 5.21 | 6.12 | 5.64 | 5.91 | 5.39 | 5.31 | – | – | – | – | – | – | – | –
24 | CCCc1cnc(NC(=O)c2cccn2Cc2ccncc2)s1 [Compound A62] | < 4.60 | 5.77 | 5.29 | 5.37 | < 4.60 | < 4.60 | – | – | – | – | – | – | – | –
